From US4251524A (priority 1976, dated 1981)

The compounds below were run on Klebsiella pneumoniae; Enterobacter aerogenes sp.; Providencia; Serratia marcescens; E. coli BE; Salmonella sp.; Shigella sp.; Proteus, indole-negative and …. Conditions: 100 μg/ml, Muller-Hinton nutrient broth with 0.1% glucose, 1×10^5 to 2×10^5 bacteria per ml, 24 hours; all listed cultures.
Format: cell-based

SMILES | freedom from turbidity of bacterial cultures (indicates action)
CC1(C)S[C@@H]2[C@H](NC(=O)[C@H](NC(=O)N3CCN(N=Cc4ccccc4)C3=O)c3ccccc3)C(=O)N2[C@H]1C(=O)O [Example 1.3, sodium 6-{D-α-[(2-oxo-3-benzalimino-imidazolidin-1yl)-carbonylamino]phenylacetamido}-penicillanate] | free from turbidity
CC1(C)S[C@@H]2[C@H](NC(=O)[C@H](NC(=O)N3CCN(N=Cc4ccc(Cl)cc4)C3=O)c3ccccc3)C(=O)N2[C@H]1C(=O)O [Example 2.3, sodium 6-{D-α-[(2-oxo-3-{4-chloro}-benzalimino-imidazolidin-1-yl)-carbonylamino]-phenylacetamido}-penicillanate] | free from turbidity
CC1(C)S[C@@H]2[C@H](NC(=O)[C@H](NC(=O)N3CCN(N=Cc4ccc(Cl)cc4)C3=O)C3=CCC=CC3)C(=O)N2[C@H]1C(=O)O [Example 2.4, sodium 6-{D-α-[(2-oxo-3-{4-chloro}-benzalimino-imidazolidin-1-yl)-carbonylamino]-cyclohex-1,4-dien-1-yl-acetamido}-penicillanate] | free from turbidity
CC=CC=NN1CCN(C(=O)N[C@@H](C(=O)N[C@]2(OC)C(=O)N3C(C(=O)O)=C(COC(C)=O)CS[C@@H]32)c2ccccc2)C1=O [Example 36, 7-methoxy-7-{D-α-[(2-oxo-3-but-2-enylideneamino-imidazolidin-1-yl)-carbonylamino]-phenylacetamido}-3-acetoxymethyl-ceph-3-em-4-carboxylic acid] | free from turbidity
COC1(NC(=O)[C@H](NC(=O)N2CCN(N=Cc3ccco3)C2=O)c2ccccc2)C(=O)N2C(C(=O)O)=C(COC(C)=O)CS[C@@H]21 (some centres unmarked) [Example 36.5] | free from turbidity
